The species entered for assay [1] is Homo sapiens. Nature of the assay: In vitro inhibition of human platelet aggregation induced by thromboxane mimetic U-46,619 at 0.3 uM. Type of assay: functional, organism-based.
The target of assay [2] is T1, Proteinase-activated receptor 1 (Homo sapiens, UniProt P25116).
T1 sequence (P25116 whole entry): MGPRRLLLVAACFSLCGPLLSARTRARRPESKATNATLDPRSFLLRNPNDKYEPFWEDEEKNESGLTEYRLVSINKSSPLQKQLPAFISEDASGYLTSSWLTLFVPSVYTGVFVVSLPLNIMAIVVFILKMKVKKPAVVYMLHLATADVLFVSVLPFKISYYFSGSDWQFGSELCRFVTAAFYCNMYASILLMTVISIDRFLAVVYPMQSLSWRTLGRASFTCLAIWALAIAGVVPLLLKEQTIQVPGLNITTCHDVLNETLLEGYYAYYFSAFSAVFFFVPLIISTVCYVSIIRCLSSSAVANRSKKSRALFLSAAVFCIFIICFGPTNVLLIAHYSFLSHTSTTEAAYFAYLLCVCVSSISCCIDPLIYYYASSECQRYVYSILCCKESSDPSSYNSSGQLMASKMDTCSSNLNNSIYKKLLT
The assay is described as follows: In vitro displacement of [3H]S-(p-F-Phe)-homoarginine-K Y-NH2 (at a concentration of 10 nM) from thrombin receptor (PAR-1) on the membranes of CHRF-288-11 cells. (In a radioligand displacement assay an active substance lowers the binding of a labelled ligand.)

The species named for assay [3] is Homo sapiens. Nature of the assay: In vitro inhibition of human platelet aggregation induced by 3 ug/ml collagen. The format is functional.
Assay [4] is filed under the species Homo sapiens. The assay is described as follows: In vitro inhibition of human platelet aggregation induced by collagen (at a concentration of 3 ug/mL); IA means Inactive at 50 uM. The format is functional.
For assay [5], the species on record is Homo sapiens. The assay is described as follows: In vitro inhibition of human platelet aggregation induced by thromboxane mimetic U-46,619 (at a concentration of 0.3 uM). The format is functional.
Assay [6] is filed under the species Homo sapiens. Nature of the assay: In vitro inhibition of human platelet aggregation induced by collagen (at a concentration of 3 ug/mL); In active at 50 uM concentration. Type of assay: functional.
For assay [7], the species on record is Homo sapiens. The assay is described as follows: In vitro inhibition of human platelet aggregation induced by thromboxane mimetic U-46,619 (at a concentration of 0.3 uM concentration. The format is functional.
For assay [8], the species on record is Homo sapiens. The assay is described as follows: In vitro inhibition of human platelet aggregation induced by SFLLRN-NH2 (at a concentration of 2 uM); IA means Inactive at 50 uM. The format is functional.

In the case of `COc1ccc(C[C@H](NC(=O)Nc2ccc3c(CN4CCCC4)cn(Cc4c(Cl)cccc4Cl)c3c2)C(=O)N[C@@H](CCCNC(=N)N)C(=O)NCc2ccccc2)cc1` [RWJ-54003], the half-inhibitory concentration (IC50) (usually the concentration needed to halve the response being measured) in assay [1] was “Not Active”; in assay [2] it was 1.3 µM; in assay [3] it was 46.3 µM.
With `CSCCC(NC(=O)[C@H](Cc1ccc(F)c(F)c1)NC(=O)Nc1ccc2c(CN3CCCC3)cn(Cc3c(Cl)cccc3Cl)c2c1)C(=O)NCc1ccccc1` (some centres undefined), the IC50 entry was “Not Active” in assay [1], “Not Active” in assay [4] and 11.2 µM in assay [2].
For the compound `COc1ccc(C[C@H](NC(=O)Nc2ccc3c(CN4CCC4)cn(Cc4ccc(F)cc4)c3c2)C(=O)N[C@@H](CCCN=C(N)N)C(=O)NCc2ccccc2)cc1`, the IC50 result in assay [1] and in assay [4] was “Not Active” in each case.
`CCN(CC)Cc1cn(Cc2ccc(F)cc2)c2cc(NC(=O)N[C@@H](Cc3ccc(OC)cc3)C(=O)N[C@@H](CCCN=C(N)N)C(=O)NCC3CCCCC3)ccc12`: the IC50 in assay [2] is 3.1 µM; in assay [5], 39.5 µM; in assay [3], 25.8 µM.
As to `COc1ccc(C[C@H](NC(=O)Nc2ccc3c(CN4CCCCC4)cn(Cc4ccc(F)cc4)c3c2)C(=O)N[C@@H](CCCN=C(N)N)C(=O)NCC2CCCCC2)cc1`, the IC50 in assay [5] was found to be 26.2 µM; in assay [3] it was 26.1 µM.
Turning to `CCN(CC)Cc1cn(Cc2cccc(C)c2)c2cc(NC(=O)N[C@@H](Cc3ccc(OC)cc3)C(=O)N[C@@H](CCCN=C(N)N)C(=O)NCCCc3ccccc3)ccc12`, the IC50 entry in assay [1] is “Not Active”; in assay [2] it was 2.6 µM; in assay [3], 10.2 µM.
Consider `NCCCC[C@H](NC(=O)[C@H](Cc1ccc(F)c(F)c1)NC(=O)Nc1ccc2c(CN3CCCC3)cn(Cc3c(Cl)cccc3Cl)c2c1)C(=O)NCc1ccccc1`, for which the IC50 in assay [2] worked out at 0.3 µM; in assay [5], 41.9 µM; in assay [3], 21.3 µM.
With `COc1ccc(C[C@H](NC(=O)Nc2ccc3c(CN4CCCC4)cn(Cc4ccc(F)cc4)c3c2)C(=O)N[C@@H](CCCN=C(N)N)C(=O)NCCCc2ccccc2)cc1`, the IC50 in assay [5] was 21.4 µM; in assay [3] it was 16.1 µM.
Take `COc1ccc(C[C@H](NC(=O)Nc2ccc3c(CN4CCCC4)cn(Cc4ccccc4C)c3c2)C(=O)N[C@@H](CCCN=C(N)N)C(=O)NCCCc2ccccc2)cc1`: the figures for the IC50 in assay [2], in assay [5] and in assay [3] were 1 µM, 44.2 µM and 11.9 µM, respectively.
For the compound `N#Cc1ccc(C[C@H](NC(=O)Nc2ccc3c(CN4CCCC4)cn(Cc4c(Cl)cccc4Cl)c3c2)C(=O)N[C@@H](CCCNC(=N)N)C(=O)NCc2ccccc2)cc1`, the IC50 entry in assay [1] and in assay [4] was “Not Active” in each case.
With `COc1ccc(C[C@H](NC(=O)Nc2ccc3c(CN4CCCC4)cn(Cc4ccc(OC(F)(F)F)cc4)c3c2)C(=O)N[C@@H](CCCNC(=N)N)C(=O)NCC2CCCCC2)cc1`, the IC50 in assay [2] was 2.5 µM; in assay [5], 33 µM; in assay [3] it was 40.4 µM.
Turning to `COc1ccc(C[C@H](NC(=O)Nc2ccc3c(CN4CCCC4)cn(Cc4ccc(F)cc4)c3c2)C(=O)N[C@@H](CCCN=C(N)N)C(=O)NCC2CCCCC2)cc1`, the results for the IC50 in assay [2], in assay [5] and in assay [3] were 2.6 µM, 12.5 µM and 37.6 µM, respectively.
As to `COc1ccc(C[C@H](NC(=O)Nc2ccc3c(CN4CCCC4)cn(Cc4ccc(F)cc4)c3c2)C(=O)N[C@@H](CCCN=C(N)N)C(=O)NCc2ccccc2)cc1`, the IC50 result in assay [1] is “Not Active”; in assay [4], “Not Active”; in assay [2], 2.2 µM.
As to `NCCC(NC(=O)[C@H](Cc1ccc(F)c(F)c1)NC(=O)Nc1ccc2c(CN3CCCC3)cn(Cc3c(Cl)cccc3Cl)c2c1)C(=O)NCc1ccccc1` (some centres undefined), the half-inhibitory concentration (IC50) is 0.44 µM in assay [2], “Not Active” in assay [6] and “Not Active” in assay [7].
As for `NCC(NC(=O)[C@H](Cc1ccc(F)c(F)c1)NC(=O)Nc1ccc2c(CN3CCCC3)cn(Cc3c(Cl)cccc3Cl)c2c1)C(=O)NCc1ccccc1` (some centres undefined), the concentration for half-maximal inhibition (IC50) result in assay [1] is “Not Active”; in assay [2] it was 0.92 µM; in assay [3], 36.9 µM.
The like results for `O=C(Nc1ccc2c(CN3CCCC3)cn(Cc3c(Cl)cccc3Cl)c2c1)N[C@@H](Cc1ccc(F)c(F)c1)C(=O)NC(Cc1c[nH]cn1)C(=O)NCc1ccccc1` (some centres undefined) were, in that order, “Not Active”, 1.3 µM and 34 µM.
Consider `COc1ccc(C[C@H](NC(=O)Nc2ccc3c(CN4CCCCC4)cn(Cc4cccc(C)c4)c3c2)C(=O)N[C@@H](CCCNC(=N)N)C(=O)NCC2CCCCC2)cc1`, for which the half-inhibitory concentration (IC50) in assay [2] amounted to 3.2 µM; in assay [5] it was 36.3 µM; in assay [3], 27.5 µM.
The like results for `COc1ccc(C[C@H](NC(=O)Nc2ccc3c(CN4CCCC4)cn(Cc4ccccc4Cl)c3c2)C(=O)N[C@@H](CCCN=C(N)N)C(=O)NCCCc2ccccc2)cc1` were, in that order, 0.38 µM, 44.4 µM and 12 µM.
On to `COc1ccc(C[C@H](NC(=O)Nc2ccc3c(CN4CCCCC4)cn(Cc4ccccc4C)c3c2)C(=O)N[C@@H](CCCN=C(N)N)C(=O)NCCCc2ccccc2)cc1`, for which the figures for the IC50 entry in assay [1], in assay [2] and in assay [3] were “Not Active”, 0.73 µM and 13 µM, respectively.
Regarding `Cc1ccccc1Cn1cc(CN2CCCC2)c2ccc(NC(=O)N[C@@H](Cc3ccc(C#N)cc3)C(=O)N[C@@H](CCCN=C(N)N)C(=O)NCc3ccccc3)cc21`, the IC50 result was “Not Active” in assay [1], 6.4 µM in assay [2] and 25.9 µM in assay [3].
In the same order, the values of `NCCC[C@H](NC(=O)[C@H](Cc1ccc(F)c(F)c1)NC(=O)Nc1ccc2c(CN3CCCC3)cn(Cc3c(Cl)cccc3Cl)c2c1)C(=O)NCc1ccccc1` are “Not Active”, 0.5 µM and 15.7 µM.
In the same order, the values of `Cc1ccccc1Cn1cc(CN2CCCC2)c2ccc(NC(=O)N[C@@H](Cc3ccc([N+](=O)[O-])cc3)C(=O)N[C@@H](CCCN=C(N)N)C(=O)NCc3ccccc3)cc21` are “Not Active”, 0.8 µM and 20.6 µM.
In the same order, the values of `N=C(N)NCCC[C@H](NC(=O)[C@H](Cc1ccc([N+](=O)[O-])cc1)NC(=O)Nc1ccc2c(CN3CCCC3)cn(Cc3ccc(F)cc3)c2c1)C(=O)NCc1ccccc1` are “Not Active”, 1.1 µM and 16.5 µM.
Regarding `N=C(N)NCCC[C@H](NC(=O)[C@H](Cc1ccc(F)c(F)c1)NC(=O)Nc1ccc2c(CN3CCCC3)cn(Cc3c(Cl)cccc3Cl)c2c1)C(=O)NCc1ccccc1`, the IC50 entry is “Not Active” in assay [1], “Not Active” in assay [4] and 0.82 µM in assay [2].
Consider `COc1ccc(C[C@H](NC(=O)Nc2ccc3c(CN4CCCCC4)cn(Cc4ccc(OC(F)(F)F)cc4)c3c2)C(=O)N[C@@H](CCCNC(=N)N)C(=O)NCC2CCCCC2)cc1`, for which the figures for the half-maximal inhibitory concentration (IC50) in assay [2], in assay [5] and in assay [3] were 5.6 µM, 43.5 µM and 33.1 µM, respectively.
On to `CCN(CC)Cc1cn(Cc2ccccc2C)c2cc(NC(=O)N[C@@H](Cc3ccc(OC)cc3)C(=O)N[C@@H](CCCN=C(N)N)C(=O)NCCCc3ccccc3)ccc12`, for which the IC50 entry in assay [1] is “Not Active”; in assay [2], 2.5 µM; in assay [3], 17 µM.
Turning to `NC(=O)NCCCC(NC(=O)[C@H](Cc1ccc(F)c(F)c1)NC(=O)Nc1ccc2c(CN3CCCC3)cn(Cc3c(Cl)cccc3Cl)c2c1)C(=O)NCc1ccccc1` (some centres undefined), the IC50 result was “Not Active” in assay [1], “Not Active” in assay [4] and 0.24 µM in assay [2].
With `NC(=O)CCC(NC(=O)[C@H](Cc1ccc(F)c(F)c1)NC(=O)Nc1ccc2c(CN3CCCC3)cn(Cc3c(Cl)cccc3Cl)c2c1)C(=O)NCc1ccccc1` (some centres undefined), the figures for the IC50 entry in assay [1], in assay [4] and in assay [2] were “Not Active”, “Not Active” and 1.8 µM, respectively.
As to `COC(=O)c1ccc(Cn2cc(CN3CCCC3)c3ccc(NC(=O)N[C@@H](Cc4ccc(OC)cc4)C(=O)N[C@@H](CCCN=C(N)N)C(=O)NCC4CCCCC4)cc32)cc1`, the half-inhibitory concentration (IC50) entry was “Not Active” in assay [8], “Not Active” in assay [1], “Not Active” in assay [4] and 3.5 µM in assay [2].

For the origin of these results see ChEMBL document CHEMBL1133903, “Thrombin receptor (PAR-1) antagonists. Solid-phase synthesis of indole-based peptide mimetics by anchoring to a secondary amide” (Bioorg Med Chem Lett, 2001).
